These results are taken from paper PMC5548745, “Agonist-induced dimer dissociation as a macromolecular step in G protein-coupled receptor signaling” (Nature Communications, 2017).

Data set [1] deals with TM4 peptide of FZD6. The experiment in a line: analytical size-exclusion chromatography of TM peptides. Conditions: TDW + 0.01% DDM; 500 µM each peptide; Superdex 30; 0.8 ml min^−1; room temperature; 215 nm; 2 h incubation. It is filed as binding, human. How it is done: Analytical SEC was performed on an ÄKTA Explorer with a Superdex 30 analytical column (GE Healthcare) equilibrated with TDW + 0.01% DDM. Peptides were eluted with a flow rate of 0.8 ml min^−1 at room temperature. Elution profile was monitored by UV absorbance at 215 nm. For the binding experiments, the peptides were incubated together in TDW + 0.01% DDM at room temperature for 2 h.

Data set [2] has as its target T1, FZD6-TM4 (Homo sapiens, UniProt O60353).
T1 construct: purchased Pepscan Therapeutics (Lelystad, Netherlands); host or cells: chemical synthesis (Fmoc solid phase)
T1 sequence (O60353 with tags, fused parts or gaps limits assumed): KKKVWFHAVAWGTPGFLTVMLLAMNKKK
The experiment in a line: isothermal titration calorimetry of TM peptides. It is filed as binding. Conditions: 820 µM TM5 or TM5 mut into 165 µM TM4; 0.5% DDM; 20 °C; one set of sites. How it is done: (§1) CD spectra were recorded using a J-810 spectropolarimeter (Jasco, Easton, MD, USA) in a 0.1 cm quartz cuvette. Far-UV CD spectra were collected over 190–260 nm. ITC measurements were carried out at 20 °C on an ITC (VP–ITC 200, MicroCal). 820 µM FZD6 TM5 and 165 µM FZD6 TM4 were dissolved in 0.5% DDM in water. 2 µl of TM5 peptide were injected into 260 µl TM4 during each titration. The ITC data were analyzed with the Origin 7.0 software.

Data set [3] is described as follows: circular dichroism of synthetic TM peptides. It is filed as physicochemical. Particulars: CD; triple distilled water with 0, 0.01, 0.1, 0.5% DDM. How it is done:
as §1
Supplementary Figure 5: Circular dichroism (CD) and isothermal titration calorimetry (ITC) experiments for structural analysis of synthetic peptides resembling TM1, 4, 5 and mutant TM5 and of peptide-peptide interactions, related to Figure 3. Synthetic peptides (for sequence see Supplementary Fig. 9) resembling TM1 (a), 4 (b), 5 (c) and mutant TM5 (d) were used for CD experiments in triple distilled water with increasing DDM concentrations (0% DDM – black, 0.01% DDM – blue, 0.1% DDM – green and 0.5% DDM – red). (c)TM5 is unstructured in TDW and begins to gain structure at 0.1% DDM. It forms a clear α-helical structure in 0.5% DDM. The triple mutated TM5 (d) forms an α-helix in a much lower DDM concentration (0.01% DDM). […]

In data set [4] the test system is ERK1/2 phosphorylation in MLE-12 cells. The experiment in a line: basal P-ERK1/2 immunoblot, MLE-12 cells expressing minigenes. Particulars: transient transfection of minigene. It is filed as cell-based, mouse. How it is done:
(§2) MLE-12 or HEK293 cells (ATCC) were plated in a 24- or 48-well plate at a density of 100,000 or 50,000 cells/well, respectively. After 24 h, cells were transfected using Lipofectamine 2000 according to the manufacturer’s instructions. Cells were stimulated (24 h post-transfection) with 300 ng ml^−1 recombinant carrier-free WNT-5A (CF WNT-5A; R&D Systems). Stimulation was stopped by the addition of lysis buffer (1% NP-40, 150 mM NaCl, 50 mM Tris/HCl pH 8). Lysates were sonicated and analyzed by 7.5 or 10% Mini-PROTEAN TGX precast polyacrylamide gels (Bio-Rad) and transferred to PVDF membranes using the Trans-Blot Turbo system (Bio-Rad). […] Proteins were detected with horseradish peroxidase-conjugated secondary antibodies (goat anti-rabbit and goat anti-mouse (Pierce)) and Clarity Western ECL Blotting Substrate (Bio-Rad). […]
(§3) Quantification of P-ERK1/2 is normalized to β-actin as loading control. […] P-ERK1/2, HA-TM1/5 and β-actin as loading control were assessed by PAGE/immunoblotting. […]

Data set [5] concerns lysophosphatidic acid receptor (endogenous). In words: lysophosphatidic acid-induced P-ERK1/2 in HEK293 cells with minigenes. It is filed as cell-based. Conditions: lysophosphatidic acid 10 µM, 10 min. How it is done: as §2, with “Cells were stimulated (24 h post-transfection) with 300 ng ml^−1 recombinant carrier-free WNT-5A (CF WNT-5A; R&D Systems).” left out
as §3

Data set [6] relates to HEK293 and MLE-12 cell membrane. The experiment in a line: immunocytochemistry of HA-tagged minigenes without permeabilization. It is filed as cell-based. Particulars: 4% paraformaldehyde, no permeabilization.
Source text: Supplementary Figure 7: Control experiments for assaying receptor dimerization by dcFRAP and expression of minigenes. (a) HEK293 and MLE-12 cells were transfected with HA-tagged TM1/5 minigenes, fixed in 4% paraformaldehyde and stained with an anti-HA antibody/Cy2-conjugated secondary antibody in the absence of cell permeabilization by detergents. […]
confirms both the membrane expression of the minigenes as well as the correct orientation of the peptides with the N-terminal signal sequence/HA tag on the extracellular side accessible to the primary antibody. Images were taken with a 40x objective using the 488 nm laser line on a Zeiss LSM 710 confocal microscope. Size bars – 10 µm. (b) Bar graph compares the immobile fraction in dcFRAP experiments of FZD6-GFP after CL of V5-FZD6-mCherry in cells expressing minigenes corresponding to either TM1 (control) or TM5 (competing at the dimer interface). P= […]
Error bars give s.e.m.; * P<0.05 (two-tailed t-test). (c) Transient transfection of TM5, […]
abrogation of dimer formation, in the presence of TM5, reduces receptor-mediated signaling. (d) Bar graph summarizes four independent immunoblotting experiments. P-ERK1/2 in TM1 expressing MLE-12 cells were normalized to 100%. […]
as §3

The subject of data set [7] is protease-activated receptor (endogenous). In words: thrombin-induced P-ERK1/2 in HEK293 cells with minigenes. It is filed as cell-based. Conditions: thrombin 10 U/ml, 10 min.
For data set [8], the system named is FZD6–FZD6 dimer. In words: dcFRAP of V5-FZD6-mCherry/FZD6-GFP (FZD6 dimerization). It is filed as cell-based, human. Particulars: HEK293; co-transfection of V5-FZD6-mCherry, FZD6-GFP and minigene; N=43 TM1, N=66 TM5. How it is done: For dual color FRAP experiments, cells grown in four compartment 35 mm glass bottom dishes were washed three times with BE buffer[19] (150 mM NaCl, 2.5 mM KCl, 10 mM HEPES, 12 mM glucose, 0.5 mM CaCl2, and 0.5 mM MgCl2). Then, the cells were incubated at RT for 30 min with biotin-conjugated goat polyclonal anti-V5 antibody (Bethyl) diluted 1:100 in BE buffer supplemented with 2.5% bovine serum albumin. For antibody-mediated cross-linking, avidin was added and incubated for 15 min and washed two times with BE buffer before the experiments were performed. In Fig. 4, dcFRAP experiments are presented that employ chemical surface crosslinking to visualize assembly of FZD6 with DVL or heterotrimeric G proteins according to previously published protocols. Live cell imaging experiments were carried out using a Zeiss 710 laser scanning microscope. Images were acquired using a 40×, 1.2 NA C-Apochromat objective and the 488 nm and the 561 nm laser lines were used to excite GFP and mCherry fluorophores, respectively. Photobleaching was performed by 100% laser illumination of a 1.80 × 1.80 µm area placed over the cell plasma membrane. Fluorescence was measured pre- and post-bleach using low-intensity illumination for a total time period of 100 s. Average pixel intensity was measured using the ZEN2013 software, corrected for background fluctuations and bleaching artifacts and normalized to pre-bleached intensity. The recovered mobile fraction (F m) was calculated as follows: F m = (I P–I 0)/(I I–I 0), where I I is the initial intensity measured prior to bleaching, I 0 is the immediate fluorescence intensity post-bleaching and I P is intensity value post-bleaching. The mobile fraction was defined by the average of the fluorescence recovery assessed between time 85–101 s (including pre-bleach measurements). We excluded experiments in which the extracellularly tagged receptors were not sufficiently immobilized after the crosslinking procedure (cutoff at 40% crosslinking-induced reduction in mobile fraction). Kinetic determination of mobile fractions of crosslinked V5-FZD6-mCherry and FZD6-GFP with WNT stimulation over time were performed in one cell culture well. Measurements for each time point were performed on separate cells.
Statistical and graphical analysis was performed using Graph Pad Prism 5 software. Data were analyzed by two-tailed t-test or one-way ANOVA with Fisher’s least significant difference post hoc analysis. Curve fitting of FRAP data was done with a two-phase association nonlinear function using the least square fit. Data for receptor titration in the presence of C59 and output to P-ERK1/2 in Fig. 6h was fit to a linear regression model. All experiments were repeated at least three times in independent experiments (not representing technical replicates). For single cell analysis (dcFRAP), the number of the individual ROIs obtained from several cells in at least three independent experiments is provided in the figure legends. Data from individual ROIs are summarized for data presentation providing the sum of independent observations. Significance levels are given as: *P < 0.05; **P < 0.01; ***P < 0.001. Data in FRAP curves and bar graphs (FRAP) are presented as mean ± s.e.m.

As for “WKKLAASAAFVLLPLCLCVFVGLSLLLAGIISKKK [TM5 mut, TM5 peptide with D365A, R368A, Y369A mutations]”, the “SEC elution volume in combination with TM4” value in data set [1] is reported as “did not result in a shift to a higher elution volume”. Also, the “ITC affinity (dissociation constant, K D) to TM4” value in data set [2] was “does not interact”. Further, the “DDM concentration at which α-helix forms” value in data set [3] is 0.01%.

Regarding “KKKSFIGTVSIFCLCATLFTFLTFLIKKK [TM1 minigene]”, the “effect on basal P-ERK1/2” value in data set [4] is “did not affect basal ERK1/2 levels”. In addition, in data set [5], the “effect on lysophosphatidic acid-induced P-ERK1/2” value was “did not observe any difference in P-ERK1/2 induction”. The “membrane expression and orientation (anti-HA staining)” value in data set [6] is reported as “Positive anti-HA staining in the cell membrane”. The “effect on thrombin-induced P-ERK1/2” value in data set [7] is “did not observe any difference in P-ERK1/2 induction”.

Take “KKLDASRYFVLLPLCLCVFVGLSLLLAGIISKKK [TM5 minigene]”: in data set [8], the “effect of minigene on FZD6 dimer formation” value was “perturbed dimer formation”. Further, the “effect on basal P-ERK1/2” value in data set [4] is reported as “reduced basal P-ERK1/2”. The “effect on lysophosphatidic acid-induced P-ERK1/2” value in data set [5] is “did not observe any difference in P-ERK1/2 induction”. For the same sequence, the “membrane expression and orientation (anti-HA staining)” value in data set [6] was “Positive anti-HA staining in the cell membrane”. Besides, in data set [7], the “effect on thrombin-induced P-ERK1/2” value is “did not observe any difference in P-ERK1/2 induction”.
